Measured values published in patent US5840684A, “Glycopeptide antibiotic derivatives” (Eli Lilly and Company, priority 1995, dated 1998).
Converted amounts (≈) assume the structure as drawn.

Assays:
[1] = test system: Staphylococcus haemolyticus 105; assay: broth micro-dilution MIC; format: cell-based
Description: (§1) The formula I compounds have in vitro and in vivo activity against Gram-positive pathogenic bacteria. The MIC's were determined using a standard broth micro-dilution assay.

[2] = test system: Streptococcus pneumoniae P1; assay: broth micro-dilution MIC; format: cell-based
Description: as §1

[3] = test system: Staphylococcus epidermidis 270; assay: broth micro-dilution MIC; format: cell-based
Description: as §1

[4] = test system: Enterococcus gallinarum 245; assay: broth micro-dilution MIC; format: cell-based; conditions: Enterococcus gallinarum 245
Description: as §1

[5] = test system: Entercoccus faecium 180; assay: broth micro-dilution MIC; format: cell-based; conditions: Entercoccus faecium 180
Description: as §1

[6] = test system: Streptococcus pyogenes C203; assay: broth micro-dilution MIC; format: cell-based
Description: (§2) The MIC's were determined using a standard broth micro-dilution assay.

[7] = test system: Staphylococcus aureus SA1199; assay: broth micro-dilution MIC; format: cell-based
Description: as §2

[8] = test system: Staphylococcus aureus SA1199A; assay: broth micro-dilution MIC; format: cell-based
Description: as §2

[9] = test system: Staphylococcus aureus 489; assay: broth micro-dilution MIC; format: cell-based
Description: as §2

[10] = test system: Staphylococcus aureus X400; assay: broth micro-dilution MIC; format: cell-based
Description: as §2

[11] = test system: Entercoccus faecium 276; assay: broth micro-dilution MIC; format: cell-based
Description: as §2

[12] = test system: Entercoccus faecium 180-1; assay: broth micro-dilution MIC; format: cell-based
Description: as §2

[13] = test system: Staphylococcus aureus 491; assay: broth micro-dilution MIC; format: cell-based
Description: as §2

[14] = test system: Staphylococcus aureus 446; assay: broth micro-dilution MIC; format: cell-based
Description: as §2

[15] = test system: Staphylococcus aureus 447; assay: broth micro-dilution MIC; format: cell-based
Description: as §2

[16] = test system: Staphylococcus aureus SA1199B; format: cell-based
Description: as §2

[17] = test system: Staphylococcus aureus S13E; format: cell-based
Description: as §2

[18] = test system: vancomycin-resistant enterococci; assay: broth micro-dilution, mean geometric MIC; format: cell-based, Enterococcus faecium and Enterococcus faecalis; conditions: enterococci, 24-hour incubation
[19] = test system: vancomycin-susceptible enterococci; assay: broth micro-dilution, mean geometric MIC; format: cell-based, Enterococcus faecium and Enterococcus faecalis; conditions: enterococci, 24-hour incubation
[20] = test system: Staphylococcus haemolyticus 415; assay: broth micro-dilution MIC; format: cell-based
Description: as §1

[21] = test system: Entercoccus faecium 2041; assay: broth micro-dilution MIC; format: cell-based; conditions: Entercoccus faecium 2041
Description: as §1

[22] = test system: Staphylococcus aureus X778; assay: broth micro-dilution MIC; format: cell-based
Description: as §2

SMILES | MIC [1] | MIC [2] | MIC [3] | MIC [4] | MIC [5] | MIC [6] | MIC [7] | MIC [8] | MIC [9] | MIC [10] | MIC [11] | MIC [12] | MIC [13] | MIC [14] | MIC [15] | MIC [16] | MIC [17] | mean geometric MIC, Vancomycin Resistant Strains [18] | mean geometric MIC, Vancomycin Sensitive Strains [19] | MIC [20] | also measured
C=CCOc1ccc(CNC2(C)CC(OC3C(Oc4c5cc6cc4Oc4ccc(cc4Cl)C(OC4CC(C)(N)C(O)C(C)O4)C4NC(=O)C(NC(=O)C6NC(=O)C(CC(N)=O)NC(=O)C(NC(=O)C(CC(C)C)NC)C(O)c6ccc(c(Cl)c6)O5)c5ccc(O)c(c5)-c5c(O)cc(O)cc5C(C(=O)O)NC4=O)OC(CO)C(O)C3O)OC(C)C2O)cc1 (stereo not shown) [Compound 7] | 8 µg/mL (≈ 4.6 µM) | ≤ 0.06 µg/mL | 4 µg/mL (≈ 2.3 µM) | 0.5 µg/mL (≈ 0.288 µM) | 2 µg/mL (≈ 1.15 µM) | ≤ 0.06 µg/mL | 4 µg/mL (≈ 2.3 µM) | ≤ 0.06 µg/mL | 2 µg/mL (≈ 1.15 µM) | 1 µg/mL (≈ 0.575 µM) | 1 µg/mL (≈ 0.575 µM) | ≤ 0.06 µg/mL | 2 µg/mL (≈ 1.15 µM) | 8 µg/mL (≈ 4.6 µM) | 4 µg/mL (≈ 2.3 µM) | 1 µg/mL (≈ 0.575 µM) | 2 µg/mL (≈ 1.15 µM) | 2.8 µg/mL | 0.43 µg/mL |  | 
CNC(CC(C)C)C(=O)NC1C(=O)NC(CC(N)=O)C(=O)NC2C(=O)NC3C(=O)NC(C(=O)NC(C(=O)O)c4cc(O)cc(O)c4-c4cc3ccc4O)C(OC3CC(C)(N)C(O)C(C)O3)c3ccc(c(Cl)c3)Oc3cc2cc(c3OC2OC(CO)C(O)C(O)C2OC2CC(C)(NCc3ccc(-c4ccccc4)s3)C(O)C(C)O2)Oc2ccc(cc2Cl)C1O (stereo not shown) [Compound 67] |  | ≤ 0.06 µg/mL | 0.5 µg/mL (≈ 0.283 µM) | 2 µg/mL (≈ 1.13 µM) |  |  | 1 µg/mL (≈ 0.567 µM) | ≤ 0.06 µg/mL | ≤ 0.06 µg/mL | 1 µg/mL (≈ 0.567 µM) | ≤ 0.06 µg/mL | ≤ 0.06 µg/mL | 1 µg/mL (≈ 0.567 µM) |  | 1 µg/mL (≈ 0.567 µM) | 1 µg/mL (≈ 0.567 µM) |  | 1.7 µg/mL | 0.16 µg/mL | 2 µg/mL (≈ 1.13 µM) | MIC [21]: ≤ 0.06 µg/mL
CNC(CC(C)C)C(=O)NC1C(=O)NC(CC(N)=O)C(=O)NC2C(=O)NC3C(=O)NC(C(=O)NC(C(=O)O)c4cc(O)cc(O)c4-c4cc3ccc4O)C(OC3CC(C)(N)C(O)C(C)O3)c3ccc(cc3)Oc3cc2cc(c3OC2OC(CO)C(O)C(O)C2OC2CC(C)(NCc3ccc(-c4ccccc4)cc3)C(O)C(C)O2)Oc2ccc(cc2Cl)C1O (stereo not shown) [Compound 182] | 2 µg/mL (≈ 1.16 µM) | ≤ 0.06 µg/mL |  | 1 µg/mL (≈ 0.58 µM) | 2 µg/mL (≈ 1.16 µM) | ≤ 0.06 µg/mL | 2 µg/mL (≈ 1.16 µM) | ≤ 0.06 µg/mL | 2 µg/mL (≈ 1.16 µM) | 1 µg/mL (≈ 0.58 µM) | 1 µg/mL (≈ 0.58 µM) | ≤ 0.06 µg/mL | 1 µg/mL (≈ 0.58 µM) | 2 µg/mL (≈ 1.16 µM) |  | 4 µg/mL (≈ 2.32 µM) |  | 13 µg/mL |  | 4 µg/mL (≈ 2.32 µM) | MIC [21]: 1 µg/mL (≈ 0.58 µM); MIC [22]: 2 µg/mL (≈ 1.16 µM)
CNC(CC(C)C)C(=O)NC1C(=O)NC(CC(N)=O)C(=O)NC2C(=O)NC3C(=O)NC(C(=O)NC(C(=O)O)c4cc(O)cc(O)c4-c4cc3ccc4O)C(OC3CC(C)(N)C(O)C(C)O3)c3ccc(c(Cl)c3)Oc3cc2cc(c3OC2OC(CO)C(O)C(O)C2OC2CC(C)(NCc3ccc(-c4ccc(C(F)(F)F)cc4)cc3)C(O)C(C)O2)Oc2ccc(cc2Cl)C1O (stereo not shown) [Compound 216] | 0.5 µg/mL (≈ 0.274 µM) | ≤ 0.06 µg/mL |  |  | ≤ 0.06 µg/mL | ≤ 0.06 µg/mL | ≤ 0.06 µg/mL | 1 µg/mL (≈ 0.547 µM) | 1 µg/mL (≈ 0.547 µM) | 1 µg/mL (≈ 0.547 µM) | 0.5 µg/mL (≈ 0.274 µM) | ≤ 0.06 µg/mL | 1 µg/mL (≈ 0.547 µM) | 1 µg/mL (≈ 0.547 µM) | 1 µg/mL (≈ 0.547 µM) | 0.5 µg/mL (≈ 0.274 µM) | 1 µg/mL (≈ 0.547 µM) | 0.35 µg/mL | 0.032 µg/mL |  | 
